Our source for the IC50 values is patent US8101774B2, “Ester derivatives and medicinal use thereof” (Japan Tobacco Inc., priority 2004, dated 2012).

In this test the target is T1, Microsomal triglyceride transfer protein (MTP) from human small intestine microsome (Homo sapiens, UniProt P55157).
T1 construct: Human small intestine microsome was dialyzed against 10 mM phosphate buffer; tissue Tissue Transforming Technologies, Inc; host or cells: human small intestine microsome
Kind of test: Inhibition test of interliposomal triglyceride (TG) transfer activity by MTP. The class given is biochemical. The note with it: purified MTP from human small intestine microsome, 37° C., 1.5 hours. The procedure:
Microsomal triglyceride transfer protein (MTP) from human small intestine microsome (manufactured by Tissue Transforming Technologies, Inc.) was purified in such a way described below. Human small intestine microsome was dialyzed against 10 mM phosphate buffer (300 mL, pH 6.8) twice for about 2 hours and once for further not less than 12 hours, at about 4° C. After dialysis, the mixture was centrifuged at 4° C. and 15,000×g for 5 minutes and then the supernatant was recovered. The previously recovered supernatant was purified by column chromatography on diethylaminoethyl (DEAE) Sepharose using FPLC (Fast Performance Liquid Chromatography) system, and the purified MTP was used for the test as described below.
Small unilamellar-vesicle (SUV) liposome (hereinafter described as donor, containing 0.25% (mol/mol) triolein and 5% (mol/mol) cardiolipin) constituted by triolein labeled with ^14C and non-labeled SUV liposome (hereinafter described as acceptor, containing […] triolein) were prepared in such a way described below.
Firstly, in order to prepare the donor, there were volatilized under a stream of nitrogen gas a phosphatidylcholine solution containing phosphatidylcholine labeled with ^3H, a cardiolipin solution, and a triolein solution containing triolein labeled with ^14C (each solution had been already dissolved in an appropriate organic solvent), or in order to prepare the acceptor, there were volatilized under nitrogen flow a phosphatidylcholine solution containing phosphatidylcholine labeled with ^3H and a cardiolipin solution (each solution had been already dissolved in an appropriate organic solvent). An appropriate amount of a reaction buffer (15 mM Tris-HCl buffer containing 1 mM EDTA.Na2, 40 mM NaCl, and 0.5% (w/v) bovine serum albumin, pH 7.4) was added thereto to be emulsified. The emulsions were treated with ultrasonication under ice-cooling and centrifuged at 4° C. and 159,000×g for 2 hours. Each of the resulting supernatant was used for donor or acceptor.
Each radioactivity in the acceptor and the donor was measured by liquid scintillation counter, and a mixed solution of the acceptor and the donor was prepared with a reaction buffer so as to be a donor-derived radioactivity of 16,000 dpm/400 μL and a acceptor-derived radioactivity of 4,000 dpm/[…]. 400 μL of the mixed solution of the donor and the acceptor, 45 μL of the reaction buffer, 50 μL of MTP (20 μg/mL), and 5 μL of a sample dissolved in DMSO (dimethyl sulfoxide) or 5 μL of DMSO was mixed (total amount: 500 μL). The mixture was incubated at 37° C. for 1.5 hours. After completion of the incubation, 1.25 mL of a suspension of DEAE cellulose (66.7% (v/v)) in 15 mM Tris-HCl buffer (pH 7.4) containing 1 mM EDTA.Na2 was added to the above solution. The mixture was centrifuged to separate the donor (adsorbed on the DEAE cellulose to precipitate) and the acceptor (the supernatant). The radioactivity in the acceptor was measured by liquid scintillation counter. The value obtained by subtracting the radioactivity in a blank group from the radioactivity in the acceptor of a DMSO group was determined as MTP-mediated TG transfer activity, and it was compared with the value obtained by subtracting the radioactivity in the blank group from the radioactivity in a sample group. Here, the blank was prepared by adding 10 mM phosphate buffer (pH 6.8) containing 250 mM NaCl in place of MTP. Inhibition rate (%) was calculated from values obtained according to the following equation. Inhibition rate(%)=(1 minus((radioactivity of sample group minus radioactivity of blank group)/(radioactivity of DMSO group minus radioactivity of blank group)))×100.
50% Inhibition rate (IC50) was determined on the basis of the above equation.

T1 sequence (P55157 19-894): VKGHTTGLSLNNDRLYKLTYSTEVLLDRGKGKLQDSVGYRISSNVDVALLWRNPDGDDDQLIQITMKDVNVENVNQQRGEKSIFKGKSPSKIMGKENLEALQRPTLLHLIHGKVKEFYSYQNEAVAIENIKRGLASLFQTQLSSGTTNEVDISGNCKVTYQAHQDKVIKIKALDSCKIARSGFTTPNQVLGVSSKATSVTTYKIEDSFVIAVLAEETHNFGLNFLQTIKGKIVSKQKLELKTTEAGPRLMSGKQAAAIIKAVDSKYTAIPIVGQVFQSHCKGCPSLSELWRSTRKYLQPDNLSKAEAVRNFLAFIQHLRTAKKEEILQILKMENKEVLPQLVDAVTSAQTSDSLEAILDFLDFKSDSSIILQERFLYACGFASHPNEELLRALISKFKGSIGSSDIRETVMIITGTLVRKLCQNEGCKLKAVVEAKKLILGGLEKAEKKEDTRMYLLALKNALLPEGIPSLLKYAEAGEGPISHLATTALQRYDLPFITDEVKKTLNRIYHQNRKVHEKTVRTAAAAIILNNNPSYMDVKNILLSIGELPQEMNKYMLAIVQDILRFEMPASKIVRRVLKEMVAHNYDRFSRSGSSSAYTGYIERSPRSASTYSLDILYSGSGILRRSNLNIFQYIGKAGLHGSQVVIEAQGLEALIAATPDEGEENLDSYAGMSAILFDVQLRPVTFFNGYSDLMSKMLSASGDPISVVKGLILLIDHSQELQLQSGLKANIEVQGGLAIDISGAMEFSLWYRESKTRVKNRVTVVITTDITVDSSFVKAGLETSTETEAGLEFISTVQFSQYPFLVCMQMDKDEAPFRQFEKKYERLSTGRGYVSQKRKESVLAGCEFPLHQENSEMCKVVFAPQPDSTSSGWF
T1 sequence (P07237 18-508 partner): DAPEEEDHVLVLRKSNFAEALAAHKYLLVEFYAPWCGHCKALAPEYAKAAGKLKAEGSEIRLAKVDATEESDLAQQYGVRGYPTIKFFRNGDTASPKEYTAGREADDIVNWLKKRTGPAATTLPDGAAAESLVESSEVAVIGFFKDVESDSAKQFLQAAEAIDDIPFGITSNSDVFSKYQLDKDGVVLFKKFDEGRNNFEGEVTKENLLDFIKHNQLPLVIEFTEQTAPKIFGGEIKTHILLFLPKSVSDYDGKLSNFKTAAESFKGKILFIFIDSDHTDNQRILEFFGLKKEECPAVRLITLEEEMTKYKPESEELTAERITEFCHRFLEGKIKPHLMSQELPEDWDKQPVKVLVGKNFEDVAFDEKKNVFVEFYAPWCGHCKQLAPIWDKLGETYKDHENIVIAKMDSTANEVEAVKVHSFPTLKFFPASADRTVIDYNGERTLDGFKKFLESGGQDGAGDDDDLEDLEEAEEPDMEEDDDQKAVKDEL

For the compound `COC(=O)c1ccc(OC(=O)CCCc2ccc(NC(=O)c3ccccc3-c3ccc(C(F)(F)F)cc3)c(C(=O)N(C)C)c2)c(OC)c1` [Compound 1-12, 4-(4-{3-dimethylcarbamoyl-4-[(4′-trifluoromethylbiphenyl-2-carbonyl)amino]phenyl}butyryloxy)-3-methoxybenzoic acid methyl ester], the IC50 (usually the concentration that inhibits the measured activity by half) is under 10 nM.
In turn, `COC(=O)c1ccc(OC(=O)CCCc2ccc(NC(=O)c3ccc(C)nc3-c3ccc(C(F)(F)F)cc3)c(C(=O)N(C)C)c2)cc1` [Compound 1-13, 4-[4-(3-dimethylcarbamoyl-4-{[6-methyl-2-(4-trifluoromethylphenyl)pyridine-3-carbonyl]amino}phenyl)butyryloxy)benzoic acid methyl ester] showed an IC50 of under 10 nM.
Compound `COC(=O)c1ccc(OC(=O)CCCc2ccc(NC(=O)c3ccccc3-c3ccc(C(F)(F)F)cc3)c(C(=O)N(C)C)c2)cc1C` [Compound 1-14, 4-(4-{3-dimethylcarbamoyl-4-[(4′-trifluoromethylbiphenyl-2-carbonyl)amino]phenyl}butyryloxy)-2-methyl benzoic acid methyl ester] gave an IC50 of under 10 nM.
Regarding `COC(=O)c1ccc(OC(=O)CCCc2ccc(NC(=O)c3ccccc3-c3ccc(C(F)(F)F)cc3)c(C(=O)N3CCCC3)c2)cc1` [Compound 1-15, 4-(4-{3-(pyrrolidine-1-carbonyl)-4-[(4′-trifluoromethylbiphenyl-2-carbonyl)amino]phenyl}butyryloxy)benzoic acid methyl ester], the IC50 is under 10 nM.
The compound `CCOC(=O)c1ccc(OC(=O)CCCc2ccc(NC(=O)c3ccccc3-c3ccc(C(F)(F)F)cc3)c(C(=O)N3CCCC3)c2)c(F)c1` [Compound 1-16, 3-fluoro-4-(4-{3-(pyrrolidine-1-carbonyl)-4-[(4′-trifluoromethylbiphenyl-2-carbonyl)amino]phenyl}butyryloxy)benzoic acid ethyl ester] showed an IC50 of under 10 nM.
In the case of `COC(=O)c1ccc(OC(=O)CCCc2ccc(NC(=O)c3ccccc3-c3ccc(C(F)(F)F)cc3)c(C(=O)N(C)C)c2)cc1OC` [Compound 1-17, 4-(4-{3-dimethylcarbamoyl-4-[(4′-trifluoromethylbiphenyl-2-carbonyl)amino]phenyl}butyryloxy)-2-methoxybenzoic acid methyl ester] it was 10 to 100 nM; in that of `COC(=O)c1ccc(OC(=O)CCCc2ccc(NC(=O)c3ccccc3-c3ccc(C(F)(F)F)cc3)c(C(=O)N(C)C)c2)cc1Cl` [Compound 1-18, 2-chloro-4-(4-{3-dimethylcarbamoyl-4-[(4′-trifluoromethylbiphenyl-2-carbonyl)amino]phenyl}butyryloxy)benzoic acid methyl ester], under 10 nM.
`COC(=O)c1ccc(OC(=O)CCCc2ccc(NC(=O)c3ccccc3-c3ccc(C(F)(F)F)cn3)c(C(=O)N(C)C)c2)cc1` [Compound 1-19, 4-(4-{3-dimethylcarbamoyl-4-[2-(5-trifluoromethylpyridin-2-yl)benzoylamino]phenyl}butyryloxy)benzoic acid methyl ester] gave an IC50 of 10 to 100 nM.
For `COC(=O)c1ccc(OC(=O)CCCc2ccc(NC(=O)c3ccccc3-c3ccc(C(F)(F)F)cc3)c(C(=O)N(C)C)c2)c(C(F)(F)F)c1` [Compound 1-20, 4-(4-{3-dimethylcarbamoyl-4-[(4′-trifluoromethylbiphenyl-2-carbonyl)amino]phenyl}butyryloxy)-3-trifluoromethylbenzoic acid methyl ester], the IC50 is 10 to 100 nM.
`COC(=O)c1ccc(OC(=O)CCCc2ccc(NC(=O)c3ccccc3-c3ccc(C(F)(F)F)cc3)c(C(=O)N(C)C)c2)cc1C(F)(F)F` [Compound 1-21, 4-(4-{3-dimethylcarbamoyl-4-[(4′-trifluoromethylbiphenyl-2-carbonyl)amino]phenyl}butyryloxy)-2-trifluoromethylbenzoic acid methyl ester] gave an IC50 of 10 to 100 nM.
`CC(=O)c1ccc(OC(=O)CCCc2ccc(NC(=O)c3ccccc3-c3ccc(C(F)(F)F)cc3)c(C(=O)N(C)C)c2)cc1` [Compound 1-22, 4-{3-dimethylcarbamoyl-4-[(4′-trifluoromethylbiphenyl-2-carbonyl)amino]phenyl}butyric acid 4-acetylphenyl ester] returned an IC50 of 10 to 100 nM.
As to `CN(C)C(=O)c1cc(CCCC(=O)Oc2ccc(C#N)cc2)ccc1NC(=O)c1ccccc1-c1ccc(C(F)(F)F)cc1` [Compound 1-23, 4-{3-dimethylcarbamoyl-4-[(4′-trifluoromethylbiphenyl-2-carbonyl)amino]phenyl}butyric acid 4-cyanophenyl ester], the half-maximal inhibitory concentration (IC50) lay in the range of 10 to 100 nM.
The value for `CN(C)C(=O)c1cc(CCCC(=O)Oc2ccc(C(=O)OCc3ccccc3)cc2)ccc1NC(=O)c1ccccc1-c1ccc(C(F)(F)F)cc1` [Compound 1-24, 4-(4-{3-dimethylcarbamoyl-4-[(4′-trifluoromethylbiphenyl-2-carbonyl)amino]phenyl}butyryloxy)benzoic acid benzyl ester] was under 10 nM; that for `CN(C)C(=O)c1cc(CCCC(=O)Oc2ccc(C(=O)O)cc2)ccc1NC(=O)c1ccccc1-c1ccc(C(F)(F)F)cc1` [Compound 1-25, 4-(4-{3-dimethylcarbamoyl-4-[(4′-trifluoromethylbiphenyl-2-carbonyl)amino]phenyl}butyryloxy) benzoic acid] was 100 to 1000 nM.
`COC(=O)c1ccc(OC(=O)CCCc2ccc(NC(=O)c3ccccc3-c3ccc(C(F)(F)F)cc3)c(C(=O)N3CCOCC3)c2)cc1` [Compound 1-26, 4-(4-{3-(morpholine-4-carbonyl)-4-[(4′-trifluoromethylbiphenyl-2-carbonyl)amino]phenyl}butyryloxy)benzoic acid methyl ester]: the IC50 was 10 to 100 nM.
`COC(=O)c1ccc(OC(=O)CCc2ccc(NC(=O)c3ccccc3-c3ccc(C(F)(F)F)cc3)c(C(=O)N(C)C)c2)cc1` [Compound 1-27, 4-(3-{3-dimethylcarbamoyl-4-[(4′-trifluoromethylbiphenyl-2-carbonyl)amino]phenyl}propionyloxy)benzoic acid methyl ester] showed an IC50 of 10 to 100 nM.
The compound `COC(=O)c1ccc(OC(=O)CCCc2ccc(NC(=O)c3cccnc3-c3ccc(C(F)(F)F)cc3)c(C(=O)N(C)C)c2)cc1` [Compound 1-28, 4-[4-(3-dimethylcarbamoyl-4-{[2-(4-trifluoromethylphenyl)pyridine-3-carbonyl]amino}phenyl)butyryloxy]benzoic acid methyl ester] yielded an IC50 of under 10 nM.
As to `CC(C)OC(=O)c1ccc(OC(=O)CCCc2ccc(NC(=O)c3ccncc3-c3ccc(C(F)(F)F)cc3)c(C(=O)N(C)C)c2)cc1` [Compound 1-29, 4-[4-(3-dimethylcarbamoyl-4-{[3-(4-trifluoromethylphenyl)pyridine-4-carbonyl]amino}phenyl)butyryloxy]benzoic acid isopropyl ester], the IC50 was under 10 nM.
Turning to `COC(=O)c1ccc(OC(=O)CCCc2ccc(NC(=O)c3ccncc3-c3ccc(C(F)(F)F)cc3)c(C(=O)N(C)C)c2)cc1` [Compound 1-30, 4-[4-(3-dimethylcarbamoyl-4-{[3-(4-trifluoromethylphenyl)pyridine-4-carbonyl]amino}phenyl)butyryloxy]benzoic acid methyl ester], the IC50 lay in the range of 10 to 100 nM.
Compound `CC(C)OC(=O)c1ccc(OC(=O)CCCc2ccc(NC(=O)c3cccnc3-c3ccc(C(F)(F)F)cc3)c(C(=O)N(C)C)c2)cc1` [Compound 1-31, 4-[4-(3-dimethylcarbamoyl-4-{[2-(4-trifluoromethylphenyl)pyridine-3-carbonyl]amino}phenyl)butyryloxy]benzoic acid isopropyl ester] registered an IC50 of 10 to 100 nM.
